Measured values as given in patent EP2252154B1, “METHOD FOR MINIMIZING THE CYTOTOXICITY OF THE EFFECTIVE AGENT IN A COMPOSITION THAT IS ADMINISTERED TO A MAMMAL OR GETS INTO CONTACT WITH A MAMMAL” (Oy Granula AB LTD, priority 2008, dated 2009).
≈ marks a conversion by molar mass, not a printed value. Where two headings read alike, the source gives them in different places.

Key:
human keratinocyte cells = system: human keratinocyte cells
Experimental: The composition of the individual compounds included in the compound mixture contained by the samples was in accordance with Table 3B. The cytotoxicity of the sample extracts and powders for human keratinocyte cells was measured. The employed measure of cytotoxicity was the total protein quantity created by the samples, when the samples were incubated together with human keratinocyte cells for a certain incubation time (24 h). For each sample, there was searched a limit value (EC20), by which 20% of the cultivated cells died.

[1] = Antioxidative capacity: inhibition of the peroxidation of lipids; type: biochemical; conditions: pure polyphenols isolated from wood materials
[2] = Peroxide radicals capturing capacity; type: biochemical; conditions: pure polyphenols isolated from wood material; per gram
[3] = pure polyphenols; footnote 1: Willför et al., J. Agric. Food. Chem, 51. 26 (2003); cited from earlier work
[4] = pure polyphenols; footnote 1: Willför et al., J. Agric. Food. Chem., 51, 7600-7606 (2003); cited from earlier work

Molecule	EC50 [1] [µg/mL]	capturing capacity [2] [mmol/g]	EC50 [3] [µg/mL]	capturing capacity [4] [mmol/g]	other results
Cc1cc(C(C)(C)C)c(O)c(C(C)(C)C)c1 [BTH, butylated hydroxytoluene]	–	–	–	–	times more cytotoxic with respect to HMR extract mixtures (human keratinocyte cells; from Table 1): 50-100 times; EC20 ppm 24 h (human keratinocyte cells; human, 24 h): 5.50 ppm
COc1cc([C@H]2c3cc(O)c(OC)cc3C[C@@H](CO)[C@@H]2CO)ccc1O [Cyclolariciresinol]	0.017 (≈ 0.0472 µM)	12	–	–	–
O=C1c2c(O)cc(O)cc2O[C@H](c2ccc(O)cc2)[C@H]1O [Dihydrokaempferol]	0.488 (≈ 1.69 µM)	0.78	–	–	–
COc1cc(C[C@H]2C(=O)OC[C@@H]2[C@H](O)c2ccc(O)c(OC)c2)ccc1O [Hydroxymatairesinol]	–	–	0.058 (≈ 0.155 µM)	5.6	–
COc1cc(C[C@H]2CO[C@H](c3ccc(O)c(OC)c3)[C@H]2CO)ccc1O [Lariciresinol]	–	–	0.126 (≈ 0.35 µM)	2.7	–
COc1cc(C[C@H]2COC(=O)[C@@H]2Cc2ccc(O)c(OC)c2)ccc1O [Matairesinol]	–	–	0.099 (≈ 0.276 µM)	2.9	–
Oc1ccc([C@H]2Oc3c(ccc(O)c3O)[C@@H](O)[C@H]2O)cc1O [Melacasidine]	0.036 (≈ 0.118 µM)	20	–	–	–
COc1cc(CC2COC(=O)C2(O)Cc2ccc(O)c(OC)c2)ccc1O (stereo not shown) [Nortrachelogenin]	–	–	0.053 (≈ 0.142 µM)	5.9	–
O=C1C[C@@H](c2ccccc2)Oc2cc(O)cc(O)c21 [Pinosembrin]	1.135 (≈ 4.43 µM)	0.49	–	–	–
Oc1cc(O)cc(/C=C/c2ccccc2)c1 [Pinosylvin]	0.05 (≈ 0.236 µM)	0.78	–	–	–
COc1cc(C[C@@H](CO)[C@H](CO)Cc2ccc(O)c(OC)c2)ccc1O [Secoisolariciresinol]	–	–	0.037 (≈ 0.102 µM)	8.5	–
O=C1c2c(O)cc(O)cc2O[C@H](c2ccc(O)c(O)c2)[C@H]1O [Taxifolin]	–	–	0.046 (≈ 0.151 µM)	16	–
Oc1ccc([C@H]2Oc3c(ccc(O)c3O)[C@@H](O)[C@H]2O)cc1 [Teracasidine]	0.05 (≈ 0.172 µM)	7.8	–	–	–
Pinoresinol	0.02	7.8	–	–	–
